Results published in US20090048449A1, “RIMONABANT MONOHYDRATE, PROCESS FOR THE PREPARATION THEREOF AND PHARMACEUTICAL COMPOSITIONS CONTAINING SAME” (SANOFI-AVENTIS, priority 2006, published 2009).
One block for each compound: values may come before it.

Assays:
Format in all cases: physicochemical
[1] = Flowability of the crystal forms by flowability / compressibility / Carr index; conditions: for Carr index: tap and bulk densities in graduated cylinder, data at 10 and 1250 taps, <=20% good powder flow, >21% passable to very difficult
Method: The flowability of the rimonabant monohydrate crystal form was measured and compared to that of the rimonabant crystal form II. The flowability of the crystal forms is measured by the flowability index or compressibility index or Carr index as described in R. L. Carr: Evaluation of flow properties of solids, Chem. Eng., 1965, 163-168 and also in the European Pharmacopeia.
The flowability index is calculated according to the following equation: IC=100×(ρt−ρb)/ρt where ρt is the tap density and ρb is the bulk density. This index is considered to be good if it is less than 20.
The densities are determined experimentally by packing the product into a graduated cylinder according to the procedure described in the European Pharmacopeia. The densities are determined after 10, 500, 1250 and 2500 taps. The Carr index is determined from the data measured at 10 and 1250 taps.
A Carr index less than or equal to 20% is considered as corresponding to a good powder flow, whereas a Carr index greater than 21% is considered as corresponding to a passable, even difficult or very difficult, powder flow.

[2] = Filterability: specific resistance of the filter cake; conditions: filtering crystals from the solution in which they were formed; comparison with form I and form II
Excerpt: The improvement in filterability allows the filtration step to be shortened and leads to a significant improvement in the texture of the filter cake which is characterized by a low moisture content of the powder before drying and a low degree of residual solvent before drying. The resulting powder after drying has improved physical properties, especially in terms of flowability and therefore of handleability.

[3] = Water vapor sorption/desorption at 25° C. (SGA100 analyzer); conditions: sorption cycle 0-100% RH at 25° C. after degassing the monohydrate at 80° C. for 3 hours (water of hydration lost)
Method: Analysis of water vapor sorption/desorption measurements was carried out on the rimonabant monohydrate crystal form on a SGA100 analyzer sold by VTI (USA). It was operated between 0% and 100% relative humidity at 25° C. after degassing the monohydrate form at 80° C. for 3 hours. The rimonabant monohydrate loses its water of hydration molecule during drying at 80° C. During the water vapor sorption cycle, the conversion of the rimonabant into rimonabant monohydrate occurs starting from 40% relative humidity. The sorption/desorption isotherm is represented in FIG. 4.

- Flowability corresponding to the Carr index (in words) ([1]; Carr index measured, only class in words printed): very difficult flowability
SMILES: Cc1c(C(=O)NN2CCCCC2)nn(-c2ccc(Cl)cc2Cl)c1-c1ccc(Cl)cc1 [rimonabant crystal form I, N-piperidino-5-(4-chlorophenyl)-1-(2,4-dichlorophenyl)-4-methylpyrazole-3-carboxamide]

- Carr index [1]: around 38%
SMILES: Cc1c(C(=O)NN2CCCCC2)nn(-c2ccc(Cl)cc2Cl)c1-c1ccc(Cl)cc1 [rimonabant crystal form II, N-piperidino-5-(4-chlorophenyl)-1-(2,4-dichlorophenyl)-4-methylpyrazole-3-carboxamide]

- Carr index [1]: 20%
SMILES: Cc1c(C(=O)NN2CCCCC2)nn(-c2ccc(Cl)cc2Cl)c1-c1ccc(Cl)cc1 [rimonabant monohydrate crystal form]
- Specific resistance of the filter cake [2]: less than that measured for rimonabant crystal form I and crystal form II

- Relative humidity from which conversion of rimonabant into rimonabant monohydrate occurs [3]: ≥ 40 % relative humidity
SMILES: Cc1c(C(=O)NN2CCCCC2)nn(-c2ccc(Cl)cc2Cl)c1-c1ccc(Cl)cc1 [rimonabant, N-piperidino-5-(4-chlorophenyl)-1-(2,4-dichlorophenyl)-4-methylpyrazole-3-carboxamide]
